{
  "source": "paper PMC11002875",
  "about": "“Linking triphenylphosphonium cation to a bicyclic hydroquinone improves their antiplatelet effect via the regulation of mitochondrial function” (Redox Biology, 2024)",
  "key": {"Washed platelets [1]": {"tested_on": "Washed platelets", "assay": "Mitochondrial ROS (mtROS) levels (MitoSOX)", "format": "cell-based, Human", "description": "(§1) Human platelet purification. The blood sample was obtained from voluntary donors (10 days without antiplatelet medication) who agreed to participate after signing informed consent (Scientific Ethics Committee of the University of Talca N° 04–2022). Briefly, blood anticoagulated with acid-citrate-dextrose (ACD) was obtained in a 4:1 v/v ratio. The sample was centrifuged for 12 min at 250 g to obtain platelet-rich plasma (PRP). Subsequently, the PRP was centrifuged for 8 min at 900 g to obtain the platelet pellet. The plasma supernatant was removed, and the platelets were resuspended in Tyrodes buffer without calcium plus ACD in a ratio of 5:1 v/v. The platelets were centrifuged once more for 8 min at 900 g and the pellet was resuspended in Tyrodes buffer without calcium. Finally, the platelets were counted (Mindray BC-3000 Plus hematology counter, Japan), adjusted to the desired concentration, and used within 3 h.\nMitochondrial ROS (mtROS) Levels. The MitoSOX probe was used to identify mitochondrial ROS production specifically. Washed platelets (50 × 10^6 platelets/mL) were labeled with the MitoSOX® Red probe (Invitrogen, Carlsbad, CA, USA) 10 μM and incubated for 20 min at 37 °C protected from light. After, compounds (1, 5, and 10 μM) were added to the platelets and incubated for 10 min at 37 °C. […]"}, "Washed platelets [2]": {"tested_on": "Washed platelets", "assay": "Intraplatelet calcium levels (Fluo-4-AM)", "format": "cell-based, Human", "conditions": "compounds 1, 5 and 10 μM, 10 min", "description": "as §1\nIntraplatelet calcium levels. Washed platelets (200-250 × 10^6 platelets/mL) were labeled Fluo-4-AM probe with 0.5 μM and incubated for 20 min at room temperature protected from light. Subsequently, platelets were adjusted to a count of 50 × 10^6 platelets/mL, and compounds (1, 5, and 10 μM) were added and incubated for 10 min at 37 °C. The sample was acquired in the BD Facs Lyric flow cytometer (BD Biosciences, USA). Representative dot plots are available in Supplementary Figs. 13 and 26. As a control for increased intracellular calcium, P-trifluoromethoxyphenylhydrazone carbonylcyanide (FCCP) 1 μM was used."}, "[3]": {"tested_on": "platelet-rich plasma (PRP)", "assay": "Clot retraction", "set-up": "species or system Human", "conditions": "10 μM; thrombin 0.5 Units/mL; 2 h", "description": "Clot retraction. Blood was obtained in 3.2% citrate tubes, which were centrifuged for 12 min at 250 g to obtain platelet-rich plasma (PRP). The assay was prepared in Khan tubes by adding 750 μL of tyrodes buffer without calcium, 200 μL of PRP, and 5 μL of red blood cells; the mixture was treated with NP4 10 μM or vehicle and incubated for 10 min. A glass rod was positioned in the center of the tube (as a support for clot adhesion) and clot retraction was initiated by adding 50 μl of 10 Units/mL thrombin (final concentration 0.5 Units/mL). Photographs were recorded at 0; 15; 30; 60; 90; and 120 min time intervals. The clots formed after 2 h were weighed to quantify retraction."}, "Washed platelets [4]": {"tested_on": "Washed platelets", "assay": "Cellular cytotoxicity by release of lactate dehydrogenase (LDH)", "format": "cell-based, Human", "conditions": "Supplementary Fig. 1", "description": "as §1\nCellular cytotoxicity by the release of lactate dehydrogenase (LDH). Washed platelets (200-250 × 10^6 platelets/mL) were incubated with the compounds under study or vehicle for 15 min at 37 °C. Then, the platelets were centrifuged at 900 g for 8 min to collect the supernatant. […] The absorbance was analyzed at 490 nm (Microplate Reader Thermo Scientific Multiskan Go, Finland)."}, "Whole blood": {"tested_on": "Whole blood", "assay": "Bleeding time in vitro, Innovance PFA-200 closure time", "set-up": "species or system Human", "conditions": "10 μM, 10 min", "description": "Bleeding time in vitro Innovance PFA-200 system. Blood was obtained in 3.2% citrate tubes which were allowed to settle for 30 min before the test. Whole blood was mixed with NP4 10 μM and incubated for 10 min. Subsequently, the sample was loaded into the Collagen/Epinephrine or Collagen/ADP cartridge and the closure time was measured in the Innovance PFA-200 system (Siemens Healthcare Diagnostics Products, Munich, Germany). Eptifibatide 10 μM was used as a control."}, "[5]": {"tested_on": "complex I from Y. lipolytica mitochondrial membranes reconstituted into proteoliposomes", "assay": "Proton pumping and activity of reconstituted complex I (ACMA quench in proteoliposomes)", "format": "biochemical", "description": "Proton pumping and activity of reconstituted complex I. Purification of complex I from Y. lipolytica mitochondrial membranes and reconstitution of complex I into Proteoliposomes was performed as previously described. Briefly, complex I was reconstituted in proteoliposomes (Cxl), and then ACMA (9-Amino-6-Chloro-2-Methoxyacridine) was added to quantify the proton pumping activity. Fluorescence changes were monitored at 25 °C in a Fluorolog-3 spectrofluorometer (Horiba Scientific). Settings: λex = 430 nm, λem = 475, slit 5 nm, time increment 0.2 s. Proteoliposomes (15 μg protein) were diluted in 2 ml assay buffer (20 mM Mops pH 7.2, 80 mM KCl, 0.5 μM valinomycin). After starting the measurement, 0.5 μM ACMA, 70 μM decylubiquinone (DBQ), 125 μM NADH, NP4 […]/vehicle, and Carbonyl cyanide m-chlorophenyl hydrazone (CCCP) 5 μM were added after 50, 100, 150, 200 and 300 s, respectively. The measurements were done in triplicate for 5, 15, 30, 45, 60 and 100 μM NP4. The Average over the time after the addition of NADH/NP4/CCCP till the next addition was taken from each measurement. The quenching after NADH the addition was taken as the zero % value and the dequench with CCCP was set to 100%. The zero value was subtracted from the dequenching with NP4 and the max dequenching with CCCP. The DMSO negative control was measured in duplicate."}, "Washed platelets [6]": {"tested_on": "Washed platelets", "assay": "Cell viability by Calcein-AM (flow cytometry)", "format": "cell-based, Human", "conditions": "1, 2, 5, 10 and 20 μM; 15 min", "description": "as §1\nCell viability by Calcein-AM. Washed platelets (200-250 × 10^6 platelets/mL) were labeled with 0.1 μM Calcein-AM and incubated for 15 min at 37 °C protected from light. […] Viability was analyzed on the BD Facs Lyric Flow Cytometer (BD Biosciences, USA). The percentage of Calcein-negative platelets (without fluorescence) in the CD61-PE-positive subpopulation (BD Biosciences, San José, CA, USA) was identified as non-viable platelets. […]"}},
  "data": [
    {"smiles": "Cc1c(C)c(O)c2c(c1O)C(=O)C(CCCC[P+](c1ccccc1)(c1ccccc1)c1ccccc1)=CC2(C)C.[Br-]", "note": "[NP4, (4-(5,8-dihydroxy-4,4,6,7-tetramethyl-1-oxo-1,4-dihydronaphthalen-2-yl)butyl)triphenyl phosphonium bromide]", "values": [
      {"measurement": "mtROS generation", "setting": "Washed platelets [1]; 10 μM, MitoSOX, 10 min", "value": "able to increase"},
      {"measurement": "Dependence of depolarizing and antiplatelet effect on mtROS", "setting": "Washed platelets [1]; MitoTempol 1 µM added first, then NP4 10 µM", "value": "independent of mitochondrial ROS levels"},
      {"measurement": "Intraplatelet calcium levels", "setting": "Washed platelets [2]", "value": "increase it significantly"},
      {"measurement": "Clot retraction (clot weight)", "setting": "[3]", "value": "does not significantly alter"},
      {"measurement": "Safe concentrations (LDH release)", "setting": "Washed platelets [4]", "value": "below 10 μM"},
      {"measurement": "Closure time PFA-200 Collagen/ADP", "setting": "Whole blood", "value": "does not significantly alter"},
      {"measurement": "Closure time PFA-200 Collagen/Epinephrine", "setting": "Whole blood", "value": "does not significantly alter"},
      {"measurement": "IC50", "setting": "[5]; ACMA dequench relative to CCCP (100%), 5-100 μM NP4", "value": "37.7 ± 1.14", "unit": "µM"},
      {"measurement": "Concentrations that decouple complex I in liposomes", "setting": "[5]; ACMA fluorescence, proteoliposomes", "value": "30 to 60", "unit": "µM"},
      {"measurement": "Platelet viability (Calcein-AM negative platelets)", "setting": "Washed platelets [6]", "value": "none of the concentrations evaluated for NP4 showed significant effects"}
    ]}
  ]
}
